ChEMBL document CHEMBL1141129, “Glucosamine-glycerophospholipids that activate cell-matrix adhesion and migration” (2005)

Columns and labels:
Type in all cases: functional
[1] = test system: HaCaT; assay: Lethal dose for Proliferation of human HaCaT cells after 24 hr of treatment upon incubation for 6 h; conditions: read-out: LD50 (the source's name)
[2] = test system: HaCaT; assay: Lethal dose for Proliferation of human HaCaT cells after 24 hr of treatment upon incubation for 24 h; conditions: for CC50: read-out: LD50 (the source's name)
[3] = test system: MDCK; assay: Lethal dose for Proliferation of […] after 24 hr of treatment upon incubation for 6 h; conditions: Canis lupus familiaris, read-out: LD50 (the source's name)

CCCCCCCCCCCCCCCCCCOC[C@H](COP(=O)([O-])OCC[N+](C)(C)C)O[C@@H]1O[C@H](CO)[C@@H](O)[C@H](O)[C@H]1O
CC50 [1]: 9 µM

CCCCCCCCCCCCCCCCCCOC[C@H](COP(=O)([O-])OCC[N+](C)(C)C)OC1OC(O)C(O)C(O)C1NC1C(=O)C(C)=C(C)C1=O (stereo partly specified)
CC50 [2]: 5.5 µM

CCCCCCCCCCCCCCCCCCOC[C@H](COP(=O)([O-])OCC[N+](C)(C)C)OC1OC(O)C(O)C(O)C1N (stereo partly specified)
CC50 [2]: 30 µM

CCCCCCCCCCCCCCCCCCOCC(COP(=O)([O-])OCC[N+](C)(C)C)OC (stereo unspecified) [EDELFOSINE]
CC50 [3]: 90 µM

CCCCCCCCCCCCCCCCOP(=O)([O-])OCC[N+](C)(C)C [MILTEFOSINE]
CC50 [3]: 200 µM | LD10 [2]: 20 µmol/L
